Among the data in article PMC12420824, “Discovery of a selective alpha-kinase 1 inhibitor for the rare genetic disease ROSAH syndrome” (Nature Communications, 2025) are IC50 and remaining activity values, retold here.

Common to all, as to experiment: HotSpot kinase assay
The target of assay [1] is T1, TAOK2/TAO1 (Homo sapiens, UniProt Q9UL54).
T1 sequence (Q9UL54 1-1235): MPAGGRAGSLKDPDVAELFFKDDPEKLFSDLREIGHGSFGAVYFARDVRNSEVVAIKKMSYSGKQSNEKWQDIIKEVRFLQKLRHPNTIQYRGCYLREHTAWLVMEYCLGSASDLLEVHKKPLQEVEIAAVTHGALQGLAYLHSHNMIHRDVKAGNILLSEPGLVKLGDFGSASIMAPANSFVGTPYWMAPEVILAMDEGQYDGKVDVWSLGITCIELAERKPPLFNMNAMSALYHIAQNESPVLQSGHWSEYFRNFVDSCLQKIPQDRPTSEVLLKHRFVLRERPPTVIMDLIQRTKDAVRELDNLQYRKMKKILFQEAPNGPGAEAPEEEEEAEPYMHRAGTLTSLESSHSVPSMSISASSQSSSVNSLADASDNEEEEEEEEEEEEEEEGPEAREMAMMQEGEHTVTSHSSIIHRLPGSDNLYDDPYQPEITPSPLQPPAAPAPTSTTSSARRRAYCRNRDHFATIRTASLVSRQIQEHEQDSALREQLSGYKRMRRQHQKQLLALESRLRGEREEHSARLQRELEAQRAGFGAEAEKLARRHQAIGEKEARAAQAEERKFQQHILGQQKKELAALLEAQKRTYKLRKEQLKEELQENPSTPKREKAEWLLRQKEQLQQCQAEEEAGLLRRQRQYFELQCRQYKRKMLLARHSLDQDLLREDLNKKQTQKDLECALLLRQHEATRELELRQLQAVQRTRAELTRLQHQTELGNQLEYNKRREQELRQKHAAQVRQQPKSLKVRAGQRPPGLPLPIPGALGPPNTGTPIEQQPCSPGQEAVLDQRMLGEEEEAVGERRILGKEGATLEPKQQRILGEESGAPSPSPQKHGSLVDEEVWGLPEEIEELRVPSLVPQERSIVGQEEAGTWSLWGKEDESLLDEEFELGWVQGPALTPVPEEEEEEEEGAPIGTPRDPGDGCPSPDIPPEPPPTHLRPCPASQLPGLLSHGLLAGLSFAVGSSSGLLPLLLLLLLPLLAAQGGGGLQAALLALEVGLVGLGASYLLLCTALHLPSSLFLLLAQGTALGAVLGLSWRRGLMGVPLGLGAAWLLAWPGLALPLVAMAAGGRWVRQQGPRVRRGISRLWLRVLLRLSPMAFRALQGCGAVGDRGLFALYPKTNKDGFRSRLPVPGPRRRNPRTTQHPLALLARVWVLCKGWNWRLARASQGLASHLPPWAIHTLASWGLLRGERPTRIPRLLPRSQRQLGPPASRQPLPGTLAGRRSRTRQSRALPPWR
The note with it: for IC50: ATP 10 µM.
Text: (§1) Additionally, a 10-dose dilution series of staurosporine and other enzyme-appropriate compounds were included as positive control inhibitors.

The target of assay [2] is DRAK1/STK17A (Homo sapiens, UniProt Q9UEE5). Particulars: read-out: % Enzyme Activity (relative to DMSO control), 10 uM.
The target in assay [3] is TAOK1 (Homo sapiens, UniProt Q7L7X3). The note with it: read-out: % Enzyme Activity (relative to DMSO control), 10 uM.
Sequence of TAOK1 (Q7L7X3 whole entry): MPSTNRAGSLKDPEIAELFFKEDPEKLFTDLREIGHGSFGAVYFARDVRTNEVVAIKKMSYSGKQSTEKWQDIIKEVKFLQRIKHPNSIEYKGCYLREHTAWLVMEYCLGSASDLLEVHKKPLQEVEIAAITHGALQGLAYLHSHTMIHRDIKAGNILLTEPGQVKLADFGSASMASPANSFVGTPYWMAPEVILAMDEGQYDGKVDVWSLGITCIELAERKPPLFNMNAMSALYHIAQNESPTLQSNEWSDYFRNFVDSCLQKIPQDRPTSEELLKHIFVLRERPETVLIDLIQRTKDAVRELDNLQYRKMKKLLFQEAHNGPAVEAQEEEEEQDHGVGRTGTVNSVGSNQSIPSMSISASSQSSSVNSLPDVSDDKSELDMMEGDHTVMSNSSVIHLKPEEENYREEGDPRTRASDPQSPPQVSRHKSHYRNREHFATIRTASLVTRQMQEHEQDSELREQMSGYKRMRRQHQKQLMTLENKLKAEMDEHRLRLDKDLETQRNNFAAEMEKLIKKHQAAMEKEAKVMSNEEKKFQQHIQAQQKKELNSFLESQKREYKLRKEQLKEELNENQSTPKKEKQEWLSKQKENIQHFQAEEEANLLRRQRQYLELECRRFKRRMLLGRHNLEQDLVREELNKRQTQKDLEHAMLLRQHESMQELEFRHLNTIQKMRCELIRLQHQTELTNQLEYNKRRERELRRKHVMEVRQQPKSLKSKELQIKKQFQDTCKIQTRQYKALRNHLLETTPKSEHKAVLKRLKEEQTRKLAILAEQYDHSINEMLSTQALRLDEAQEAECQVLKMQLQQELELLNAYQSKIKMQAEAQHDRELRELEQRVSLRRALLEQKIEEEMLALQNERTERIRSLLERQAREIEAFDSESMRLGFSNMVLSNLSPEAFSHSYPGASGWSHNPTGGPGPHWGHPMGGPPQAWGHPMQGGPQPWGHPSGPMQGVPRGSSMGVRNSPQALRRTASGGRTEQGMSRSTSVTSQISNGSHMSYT
The target in assay [4] is OSR1/OXSR1 (Homo sapiens, UniProt O95747). Particulars: read-out: % Enzyme Activity (relative to DMSO control), 10 uM.
Text: as §1
The target of assay [5] is HIPK4 (Homo sapiens, UniProt Q8NE63). The note with it: read-out: % Enzyme Activity (relative to DMSO control), 10 uM.
Assay [6] addresses P38a/MAPK14 (Homo sapiens, UniProt Q16539). Particulars: read-out: % Enzyme Activity (relative to DMSO control), 10 uM.
Text: as §1
Assay [7] concerns the target FMS (Homo sapiens, UniProt P07333). Particulars: read-out: % Enzyme Activity (relative to DMSO control), 10 uM.
Text: as §1
Assay [8] addresses KSR2 (Homo sapiens, UniProt Q6VAB6). The note with it: read-out: % Enzyme Activity (relative to DMSO control), 10 uM.
Text: as §1
For assay [9], the target named is BRAF (Homo sapiens, UniProt P15056). The note with it: read-out: % Enzyme Activity (relative to DMSO control), 10 uM.
Assay [10] addresses HGK/MAP4K4 (Homo sapiens, UniProt O95819). Particulars: read-out: % Enzyme Activity (relative to DMSO control), 10 uM.
Text: as §1
Assay [11] addresses KSR1 (Homo sapiens, UniProt Q8IVT5). The note with it: read-out: % Enzyme Activity (relative to DMSO control), 10 uM.
Text: as §1
For assay [12], the target named is IRAK4 (Homo sapiens, UniProt Q9NWZ3). Particulars: read-out: % Enzyme Activity (relative to DMSO control), 10 uM.
Text: as §1
The target in assay [13] is MST1/STK4 (Homo sapiens, UniProt Q13043). Particulars: read-out: % Enzyme Activity (relative to DMSO control), 10 uM.
The target in assay [14] is CDK1/cyclin B (Homo sapiens, UniProt P06493). Particulars: read-out: % Enzyme Activity (relative to DMSO control), 10 uM.
Sequence of CDK1/cyclin B (P06493 whole entry): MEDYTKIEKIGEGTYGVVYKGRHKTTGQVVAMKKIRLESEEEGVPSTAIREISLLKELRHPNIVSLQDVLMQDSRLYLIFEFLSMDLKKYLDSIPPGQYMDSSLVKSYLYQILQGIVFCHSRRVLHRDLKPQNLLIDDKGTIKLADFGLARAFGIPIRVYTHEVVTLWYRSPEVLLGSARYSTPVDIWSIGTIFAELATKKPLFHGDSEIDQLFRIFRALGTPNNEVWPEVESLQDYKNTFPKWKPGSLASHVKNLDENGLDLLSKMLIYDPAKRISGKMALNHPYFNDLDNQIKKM
Sequence of CDK1/cyclin B (P14635 whole entry partner): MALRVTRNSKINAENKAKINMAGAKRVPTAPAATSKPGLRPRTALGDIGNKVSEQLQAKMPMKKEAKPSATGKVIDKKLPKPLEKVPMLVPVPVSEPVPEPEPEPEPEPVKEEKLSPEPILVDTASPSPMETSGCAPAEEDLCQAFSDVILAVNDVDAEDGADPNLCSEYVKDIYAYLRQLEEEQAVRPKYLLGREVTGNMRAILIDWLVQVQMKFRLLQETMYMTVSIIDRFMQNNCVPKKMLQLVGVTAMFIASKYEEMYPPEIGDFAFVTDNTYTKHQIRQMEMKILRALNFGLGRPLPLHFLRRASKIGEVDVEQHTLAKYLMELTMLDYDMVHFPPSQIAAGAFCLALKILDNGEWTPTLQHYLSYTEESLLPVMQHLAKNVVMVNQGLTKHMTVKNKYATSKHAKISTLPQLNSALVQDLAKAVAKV
Assay [15] has as its target MKK6 (Homo sapiens, UniProt P52564). The note with it: read-out: % Enzyme Activity (relative to DMSO control), 10 uM.
Text: as §1
Assay [16] addresses PKN3/PRK3 (Homo sapiens, UniProt Q6P5Z2). Particulars: read-out: % Enzyme Activity (relative to DMSO control), 10 uM.
Assay [17] has as its target PLK2 (Homo sapiens, UniProt Q9NYY3). Particulars: read-out: % Enzyme Activity (relative to DMSO control), 10 uM.
For assay [18], the target named is GRK6 (Homo sapiens, UniProt P43250). The note with it: read-out: % Enzyme Activity (relative to DMSO control), 10 uM.
Text: as §1
Assay [19] concerns the target PAK1 (Homo sapiens, UniProt Q13153). Particulars: read-out: % Enzyme Activity (relative to DMSO control), 10 uM.
Text: as §1

Sequence of PKN3/PRK3 (Q6P5Z2 whole entry): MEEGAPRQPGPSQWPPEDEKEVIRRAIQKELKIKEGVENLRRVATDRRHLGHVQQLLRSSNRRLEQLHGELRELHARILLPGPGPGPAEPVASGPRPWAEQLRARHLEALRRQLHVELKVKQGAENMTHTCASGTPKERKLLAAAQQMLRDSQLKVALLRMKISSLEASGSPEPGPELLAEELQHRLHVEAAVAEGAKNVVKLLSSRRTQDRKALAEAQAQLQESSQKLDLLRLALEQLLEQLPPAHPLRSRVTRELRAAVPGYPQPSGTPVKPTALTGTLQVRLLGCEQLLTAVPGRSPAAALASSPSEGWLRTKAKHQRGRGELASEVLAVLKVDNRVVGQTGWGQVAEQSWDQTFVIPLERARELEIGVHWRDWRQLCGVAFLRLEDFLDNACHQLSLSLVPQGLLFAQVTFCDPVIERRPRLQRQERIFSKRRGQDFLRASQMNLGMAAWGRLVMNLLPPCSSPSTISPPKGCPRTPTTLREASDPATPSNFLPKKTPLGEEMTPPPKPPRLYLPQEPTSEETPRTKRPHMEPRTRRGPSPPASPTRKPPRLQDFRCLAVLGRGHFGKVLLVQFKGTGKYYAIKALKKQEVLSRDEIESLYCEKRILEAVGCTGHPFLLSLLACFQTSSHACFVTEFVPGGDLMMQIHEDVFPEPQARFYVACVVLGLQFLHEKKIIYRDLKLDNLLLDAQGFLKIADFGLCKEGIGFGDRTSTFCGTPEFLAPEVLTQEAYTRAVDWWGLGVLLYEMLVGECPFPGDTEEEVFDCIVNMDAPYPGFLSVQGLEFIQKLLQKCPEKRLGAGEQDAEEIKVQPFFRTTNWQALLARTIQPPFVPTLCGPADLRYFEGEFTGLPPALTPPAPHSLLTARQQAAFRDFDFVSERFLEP
Sequence of KSR2 (Q6VAB6 whole entry): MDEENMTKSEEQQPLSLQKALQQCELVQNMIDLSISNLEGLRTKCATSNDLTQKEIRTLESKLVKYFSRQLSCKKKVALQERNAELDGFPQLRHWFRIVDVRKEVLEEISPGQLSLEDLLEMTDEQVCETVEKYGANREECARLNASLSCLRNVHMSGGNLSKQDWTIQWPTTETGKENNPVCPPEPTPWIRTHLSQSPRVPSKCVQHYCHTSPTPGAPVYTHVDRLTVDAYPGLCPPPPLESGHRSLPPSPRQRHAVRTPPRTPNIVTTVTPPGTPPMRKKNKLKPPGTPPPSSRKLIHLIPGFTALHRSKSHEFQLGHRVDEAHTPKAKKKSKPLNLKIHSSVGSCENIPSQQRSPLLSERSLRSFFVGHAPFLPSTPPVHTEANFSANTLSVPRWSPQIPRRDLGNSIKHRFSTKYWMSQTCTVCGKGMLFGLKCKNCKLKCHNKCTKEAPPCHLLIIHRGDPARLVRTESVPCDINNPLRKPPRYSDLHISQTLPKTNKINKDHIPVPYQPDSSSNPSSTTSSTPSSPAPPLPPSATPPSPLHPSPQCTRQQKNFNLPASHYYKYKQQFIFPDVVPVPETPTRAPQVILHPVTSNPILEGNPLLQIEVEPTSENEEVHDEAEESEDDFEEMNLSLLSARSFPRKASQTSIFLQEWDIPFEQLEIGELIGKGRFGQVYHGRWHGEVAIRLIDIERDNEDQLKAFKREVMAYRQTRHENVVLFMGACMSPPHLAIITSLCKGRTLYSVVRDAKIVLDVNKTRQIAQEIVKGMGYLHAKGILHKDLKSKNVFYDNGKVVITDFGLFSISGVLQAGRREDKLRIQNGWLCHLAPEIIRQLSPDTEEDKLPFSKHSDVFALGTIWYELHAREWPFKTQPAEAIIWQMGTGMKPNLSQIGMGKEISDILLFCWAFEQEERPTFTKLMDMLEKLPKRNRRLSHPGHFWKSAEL
Sequence of KSR1 (Q8IVT5 whole entry): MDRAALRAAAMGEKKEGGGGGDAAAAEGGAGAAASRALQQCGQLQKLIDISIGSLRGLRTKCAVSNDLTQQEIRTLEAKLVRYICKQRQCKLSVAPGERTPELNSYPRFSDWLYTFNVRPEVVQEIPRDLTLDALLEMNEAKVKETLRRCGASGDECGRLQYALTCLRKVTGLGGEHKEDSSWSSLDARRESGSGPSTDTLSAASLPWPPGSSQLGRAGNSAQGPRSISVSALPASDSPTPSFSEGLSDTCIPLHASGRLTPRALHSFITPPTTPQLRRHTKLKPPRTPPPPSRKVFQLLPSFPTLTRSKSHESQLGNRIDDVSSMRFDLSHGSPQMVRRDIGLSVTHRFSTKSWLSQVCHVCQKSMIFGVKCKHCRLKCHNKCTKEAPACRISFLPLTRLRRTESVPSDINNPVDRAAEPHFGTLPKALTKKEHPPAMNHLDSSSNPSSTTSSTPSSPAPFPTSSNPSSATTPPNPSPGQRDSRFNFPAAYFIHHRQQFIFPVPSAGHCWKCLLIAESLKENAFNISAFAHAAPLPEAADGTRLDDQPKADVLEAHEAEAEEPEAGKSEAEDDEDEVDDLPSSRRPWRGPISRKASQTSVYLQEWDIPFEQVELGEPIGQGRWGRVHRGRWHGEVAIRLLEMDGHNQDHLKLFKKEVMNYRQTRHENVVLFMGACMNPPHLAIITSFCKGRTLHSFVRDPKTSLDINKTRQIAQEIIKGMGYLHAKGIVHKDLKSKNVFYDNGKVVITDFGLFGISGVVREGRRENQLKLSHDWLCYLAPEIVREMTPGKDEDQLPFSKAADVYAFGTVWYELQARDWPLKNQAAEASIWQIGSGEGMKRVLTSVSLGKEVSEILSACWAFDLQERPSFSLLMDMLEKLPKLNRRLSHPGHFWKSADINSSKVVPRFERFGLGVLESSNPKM
Sequence of PAK1 (Q13153 whole entry): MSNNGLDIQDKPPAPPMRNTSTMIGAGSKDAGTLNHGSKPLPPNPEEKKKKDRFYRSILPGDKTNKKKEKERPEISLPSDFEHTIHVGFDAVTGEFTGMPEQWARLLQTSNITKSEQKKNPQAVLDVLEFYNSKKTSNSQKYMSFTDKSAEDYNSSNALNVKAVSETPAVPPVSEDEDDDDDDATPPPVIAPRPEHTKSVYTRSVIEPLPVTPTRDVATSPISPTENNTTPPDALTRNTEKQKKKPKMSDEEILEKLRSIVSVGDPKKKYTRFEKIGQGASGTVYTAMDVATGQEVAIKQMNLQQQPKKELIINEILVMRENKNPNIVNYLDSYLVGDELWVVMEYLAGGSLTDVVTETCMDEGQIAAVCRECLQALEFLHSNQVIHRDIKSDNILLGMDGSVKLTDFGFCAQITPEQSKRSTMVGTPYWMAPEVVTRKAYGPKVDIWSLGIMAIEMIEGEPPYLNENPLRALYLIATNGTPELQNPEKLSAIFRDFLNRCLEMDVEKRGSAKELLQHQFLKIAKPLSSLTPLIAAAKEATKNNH

In general, IC50 refers to the concentration at which inhibition is half-maximal. `C#C[C@@](C)(c1ccc(Cl)cc1)c1csc(NC(=O)c2c(F)cc(N3CCNCC3)cc2F)n1` (stereo in doubt) [DF-003]: the half-maximal inhibitory concentration (IC50) came to 1290 nM in [1] (DF-003 IC50 (nM), 10-dose) and 1290 nM in assay [1] (IC50, 10-dose). For the same compound, the remaining activity at 10 µM in assay [1] (read-out: % Enzyme Activity (relative to DMSO control), 10 uM) was 5.89%; in assay [2], 12.7%; in assay [3], 16.8%; in assay [4], 48.8%; in assay [5], 73.6%; in assay [6] it was 74.6%. The remaining activity at 10 µM in [7] is 75.7%; in assay [8] it was 79.5%; in [9], 84.1%; in [10] it was 90.5%; in [11] it was 91.5%; in assay [12], 95.5%. The remaining activity at 10 µM in assay [13] is 97.1%; in assay [14] it was 99.5%; in assay [15], 105%; in [16], 107%; in assay [17], 109%; in assay [18], 117%. Moreover, the remaining activity at 10 µM in assay [19] is 122%.
